From patent US20140284001A1, “SYSTEMS AND METHODS FOR SPRAY DRYING IN MICROFLUIDIC AND OTHER SYSTEMS” (President and Fellows Of Harvard College, priority 2012, published 2014)

Experiment: size of spray dried nanoparticles by scanning electron microscopy (SEM)
Format: physicochemical
Settings: dissolved in ethanol, spray dried with microfluidic nebulator, flow-focusing nebulization unit, four air inlets, 2.8 bar, 1 ml/h, collected 10 cm from outlet

Clc1ccccc1C(c1ccccc1)(c1ccccc1)n1ccnc1 [clotrimazole]
average nanoparticle diameters: 24+/−8 nm
